Laboratory results as given in the OPERA property sets (Mansouri et al. 2018).

Conditions: not given

SMILES | boiling point | log10 Henry constant (atm·m³/mol) | log10 Koc (L/kg) | log10 vapour pressure (mmHg) | melting point | ready biodegradability | log10 biodegradation half-life (days) | log10 Koa
Nc1ccc([N+](=O)[O-])cc1 | 332 °C | -8.9 | 1.88 | -5.49 | 146 °C | not readily biodegradable |  | 
CC(C)C(=O)OC(=O)C(C)C | 183 °C |  |  |  | -53.5 °C |  |  | 
C=Cc1ccc2ccccc2c1 |  |  |  |  | 66 °C |  |  | 
c1cnc2c(c1)CCCC2 | 222 °C |  |  |  |  |  |  | 
Clc1cc(Cl)cc(-c2c(Cl)c(Cl)cc(Cl)c2Cl)c1 |  | -4.54 |  |  |  |  |  | 
CCOP(=S)(OCC)Oc1cc(C)nc(C(C)C)n1 |  | -6.95 | 2.75 | -4.05 |  | not readily biodegradable |  | 
O=C(C=Cc1ccccc1)OCC=Cc1ccccc1 |  |  |  |  | 44 °C |  |  | 
COC(=O)Nc1ccc(Cl)c(Cl)c1 |  |  | 2.74 |  |  |  |  | 
FC(F)(F)c1ccc2c(c1)Nc1ccccc1S2 |  |  |  |  | 189 °C |  |  | 
CC(O)C1CCCCC1 (configuration not stated) | 189 °C |  |  |  |  |  |  | 
CCCCC(CC)COC(C)=O (configuration not stated) | 199 °C |  |  | -0.638 | -80 °C |  |  | 
CC(C)Oc1cc(-n2nc(C(C)(C)C)oc2=O)c(Cl)cc1Cl |  |  | 3.51 | -6.95 | 90 °C | not readily biodegradable |  | 
Fc1cc(F)c(F)nc1F | 102 °C |  |  |  |  |  |  | 
CCCCCCCCCCCCC | 235 °C |  |  | -1.25 | -5.3 °C | readily biodegradable | 1.08 | 
CCCCCS(=O)CCCCC |  |  |  |  | 58 °C |  |  | 
CC(C)NC(=O)COC(=O)c1ccccc1 |  |  |  |  | 130 °C |  |  | 
CC(C)C(NC(N)=O)NC(N)=O |  |  |  |  |  | readily biodegradable |  | 
Cc1ccc(NO)cc1 |  |  |  |  | 96 °C |  |  | 
Clc1cc2c(Cl)cc(Cl)c(Cl)c2c(Cl)c1Cl |  |  |  | -6.46 |  |  |  | 9.67
CCC(CC)C(C)C | 116 °C |  |  | 1.38 | -115 °C |  | 0.778 | 
NC(=O)c1cccnc1 |  |  |  |  | 130 °C |  |  | 
CCCCCCCCCCO | 231 °C | -4.49 | 2.59 | -2.07 | 6.9 °C | readily biodegradable |  | 
O=c1[nH]cccc1O |  |  |  |  |  | not readily biodegradable |  | 
CCOC(=O)c1cccc(OC)c1 | 260 °C |  |  |  |  |  |  | 

SMILES | boiling point | log10 Henry constant (atm·m³/mol) | log10 Koc (L/kg) | log10 vapour pressure (mmHg) | melting point | ready biodegradability | log10 biodegradation half-life (days) | log10 Koa
Fc1cccc2[nH]nnc12 |  |  | 1.87 |  |  |  |  | 
c1ccc2c(c1)ccc1[nH]c3ccccc3c12 | 448 °C |  |  |  | 134 °C |  |  | 
CCCOC(=O)NCCCN(C)C |  | -8.83 | 2.49 | -1.26 |  |  |  | 
CCOP(=S)(Oc1ccc([N+](=O)[O-])cc1)c1ccccc1 (configuration not stated) |  |  | 3.12 | -6.02 | 36 °C | not readily biodegradable |  | 
CCCCCCCC | 126 °C |  |  | 1.15 | -56.8 °C | readily biodegradable | 0.954 | 3.35
CCCCCCC(=O)OC(=O)CCCCCC | 270 °C |  |  |  | -12.4 °C |  |  | 
CC(C)=NOCCOC(=O)[C@@H](C)Oc1ccc(Oc2cnc3cc(Cl)ccc3n2)cc1 |  |  |  | -11.5 | 66.3 °C |  |  | 
CCC(CC)C(=O)OC | 137 °C |  |  |  |  |  |  | 
CC(CCC(=O)O)n1nc2ccccc2n1 (configuration not stated) |  |  |  |  | 73 °C |  |  | 
Cc1c([N+](=O)[O-])c(C)c([N+](=O)[O-])c(C(C)(C)C)c1[N+](=O)[O-] |  |  |  |  | 110 °C | not readily biodegradable |  | 
O=C(Nc1ccccc1)N(Cc1ccc(Cl)cc1)C1CCCC1 |  | -11.3 |  | -11.4 | 130 °C |  |  | 
C1=CCc2ccccc2C1 | 212 °C |  |  |  | 25 °C |  |  | 
CC(=O)NC(=O)COC(=O)c1ccccc1 |  |  |  |  | 104 °C |  |  | 
CCCC=CC(=O)OCC | 174 °C |  |  |  |  |  |  | 
O=C(O)CCC(=O)O |  |  |  | -6.72 | 188 °C | readily biodegradable |  | 
FC(F)(F)C(F)(F)Cl | -37.9 °C |  |  | 3.84 | -99.4 °C |  |  | 
CSB(C)C | 71 °C |  |  |  | -84 °C |  |  | 
Nc1ccc2cc3ccc(N)cc3nc2c1 |  |  |  |  | 285 °C |  |  | 
Oc1ccc(Cl)c2c1CCC2 |  |  |  |  | 92 °C |  |  | 
CCCCCCCCC1CCCCC1 | 264 °C |  |  | -2.04 | -20 °C |  |  | 
Nc1ccc2ccccc2c1N |  |  |  |  | 98.5 °C |  |  | 
CC(C)NC(=N)NC(=N)Nc1ccc(Cl)cc1 |  |  |  |  | 129 °C |  |  | 
c1ccc(CNCCNCc2ccccc2)cc1 |  |  |  |  | 26 °C |  |  | 

Same assay, conditions: fish

SMILES | log10 BCF | log10 biotransformation half-life (days)
CC(C)CN1CCOCC1 | 0.25 | 
C=CCCC(CC)CCCC (configuration not stated) |  | 0.93
Clc1ccccn1 | 1.28 | -0.85
O=C(O)C1CCCCC1C(=O)O (configuration not stated) | 0.3 | 
Clc1c(Cl)c(Cl)c2c(oc3c(Cl)c(Cl)c(Cl)c(Cl)c32)c1Cl | 2.89 | 1.22
C=C1C2CCC(C2)C1(C)C (configuration not stated) | 2.98 | 0.96
CCCCCCCCCCCCCC |  | 1.49
C=CC(Cl)CCl (configuration not stated) | 1.11 | -1.28
Nc1ccc([N+](=O)[O-])cc1 | 0.6 | -0.51
CCOP(=S)(OCC)Oc1cc(C)nc(C(C)C)n1 | 1.85 | 0.07
CC(C)Oc1cc(-n2nc(C(C)(C)C)oc2=O)c(Cl)cc1Cl | 3.08 | 0.77
CCCCCCCCCCCCC |  | 1.03
CCOP(=S)(Oc1ccc([N+](=O)[O-])cc1)c1ccccc1 (configuration not stated) | 2.97 | 
CCCCCCC1CCCC(C)C1 (configuration not stated) |  | 0.97
Cc1c([N+](=O)[O-])c(C)c([N+](=O)[O-])c(C(C)(C)C)c1[N+](=O)[O-] | 3.61 | 
CC(C)C1CCC(C(C)C)CC1 (configuration not stated) |  | 0.97
CCCCCCCCC1CCCCC1 |  | 1.1
